# Data reported in patent US8288510B2, “Isolated peptides having phospholipase inhibitory activity” (priority 2008, dated 2012).
# Residue numbers refer to the chain shown, from its start.
# T1: TLL variant N248G/Q249G/P250T/N251L/I252G/P253L (Thermomyces lanuginosus, UniProt O59952, I274G/N270G/N273L/P272T/P275L/Q271G)
# T1 sequence (O59952 23-291 N270G/Q271G/P272T/N273L/I274G/P275L): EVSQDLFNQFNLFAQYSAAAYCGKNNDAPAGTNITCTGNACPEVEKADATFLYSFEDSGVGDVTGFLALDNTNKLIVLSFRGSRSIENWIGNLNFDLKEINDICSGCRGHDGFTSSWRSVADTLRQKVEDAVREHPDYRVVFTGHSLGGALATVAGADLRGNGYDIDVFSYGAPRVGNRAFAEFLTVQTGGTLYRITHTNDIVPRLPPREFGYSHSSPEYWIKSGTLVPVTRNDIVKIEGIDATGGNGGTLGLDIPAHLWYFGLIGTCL
# B1: FoL: Fusarium oxysporum lipase, SEQ ID No. 1 (protein, listed as Fusarium oxysporum)
# chain: AVGVTTTDFSNFKFYIQHGAAAYCNSEAAAGSKITCSNNGCPTVQGNGATIVTSFVGSKTGIGGYVATDSARKEIVVSFRGSINIRNWLTNLDFGQEDCSLVSGCGVHSGFQRAWNEISSQATAAVASARKANPSFNVISTGHSLGGAVAVLAAANLRVGGTPVDIYTYGSPRVGNAQLSAFVSNQAGGEYRVTHADDPVPRLPPLIFGYRHTTPEFWLSGGGGDKVDYTISDVKVCEGAANLGCNGGTLGLDIAAHLHYFQATDACNAGGFSWRRYRSAESVDKRATMTDAELEKKLNSYVQMDKEYVKNNQARS
# B2: TLL: Thermomyces lanuginosus lipase, SEQ ID No. 9 (protein, listed as Thermomyces lanuginosus)
# chain: T1 sequence (O59952 23-291 N270G/Q271G/P272T/N273L/I274G/P275L) with G248N, G249Q, T250P, L251N, G252I, L253P
# Columns and labels:
# FOL wt = experiment: Enzyme assay p-NP butyrate, inhibitory effect of peptides on FoL wildtype (Example 8); format: biochemical, Fusarium oxysporum; conditions: fitted against inhibitor/lipase ratio (peptide excess 0.5 to 1000), pH 7
# Description: (§1) Enzyme assay: The substrate used for these experiments was para-nitropenyl (p-NP) butyrate (N9876 Sigma Aldrich). A substrate stock solution was prepared by adding 18 μL of p-NP butyrate to 1 ml of 2-propanol giving a 100 mM stock solution. The working solution was prepared by diluting 500 μL stock solution in final volume of 50 mL 500 mM phosphate pH 7, 0.4% triton X-100. […] An enzyme substrate blank containing 60 μL was included. After pre-incubation in minimum 15 minutes, 100 μL of substrate was added and the reaction was followed in microtiter plate spectrophotometer (SPECTRAmax PLUS 384 from Molecular Devices) after an initial shaking (5 sec.) at room temperature. Colour development over time was monitored at A405 (every 20 sec. for 30 minutes), measuring p-nitrophenol, one of the degradation products of p-NP butyrate, liberated by the hydrolysis.
# (§2) Initial reaction rates (determined as the linear initial slope of A405 plotted against time) were plotted against the logarithm to the inhibitor/lipase ratio. From the following model IC50 values were determined:
# (§3) v0 is the initial reaction rate, vmax is the maximum rate, vmin is the minimum reaction rate and IC50 is the half maximal inhibitory concentration. GraphPad Prism (v.5.00, Mar. 12, 2007) from GraphPad Software, Inc. was used for regression.
# FOL I207E variant = experiment: Enzyme assay p-NP butyrate, inhibitory effect of peptides on FoL variant I207E (Example 8); format: biochemical, Fusarium oxysporum; conditions: for IC50 value (half maximal inhibitory concentration): FOL I207E variant, fitted against inhibitor/lipase ratio (peptide excess 0.5 to 1000), p-NP butyrate, pH 7
# FOL I207E variant, sequence (as listed by the source, stated change not applied): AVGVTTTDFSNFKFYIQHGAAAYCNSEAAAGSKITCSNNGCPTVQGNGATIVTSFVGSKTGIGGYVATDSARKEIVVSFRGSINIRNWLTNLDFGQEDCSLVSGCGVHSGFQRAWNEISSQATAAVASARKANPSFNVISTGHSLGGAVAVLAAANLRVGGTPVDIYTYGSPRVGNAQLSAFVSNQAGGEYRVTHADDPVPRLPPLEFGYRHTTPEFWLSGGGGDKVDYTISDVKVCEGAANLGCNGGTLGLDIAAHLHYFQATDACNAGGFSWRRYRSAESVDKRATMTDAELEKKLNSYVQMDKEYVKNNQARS
# Description: as §1, §2, §3
# [1] = target: T1, TLL variant N248G/Q249G/P250T/N251L/I252G/P253L; experiment: Enzyme assay p-NP butyrate, inhibitory effect of peptides on TLL variant (Example 9); format: biochemical; conditions: peptide/lipase ratios 5 to 5000 (P11, P13), 6 to 6000 (P12)
# Description: as §1, §2, §3
# Enzyme assay: As described above.
# [2] = Lecithin plate assay, clearing zone (phospholipase activity); format: biochemical; conditions: for Clearing zone diameter: after 20 hours incubation
molecule,measurement,setting,value
ATMTDAELEKKLNSYVQMAKEYVKNNQARS [P1′],IC50 value (half maximal inhibitory concentration),FOL wt,No
same,IC50 value (half maximal inhibitory concentration),FOL I207E variant,No
ATMTDAELEKKLNSYVQMDKEEVKNNQARS [Peptide P4],IC50 value (half maximal inhibitory concentration),FOL wt,No
same,IC50 value (half maximal inhibitory concentration),FOL I207E variant,Very low
ATMTDAELEKKLNSYVQMDKEYVKNNQARS [Peptide P0],"binding of the peptide by FoL variant I207E compared with wildtype enzyme (% inhibition curves, FIG. 8 C)",FOL I207E variant; 0% inhibition assumed for lowest peptide concentration,better at binding the peptide than the wildtype enzyme
ATMTDAELTKKLNSYVQMDKEYVKNNQARS [Peptide P2],IC50 value (half maximal inhibitory concentration),FOL wt,Very low
ATMTDAEVEKKLNSYVQMDKEYVKNNQARS [Peptide P11],IC50 value (half maximal inhibitory concentration),[1],Very low
ATMTEAELEKKLNSYVQMDKEYVKNNQARS [Peptide P1],IC50 value (half maximal inhibitory concentration),FOL wt,Very low
B1,Clearing zone diameter,[2]; ODA280 0.2,7 mm
same,Clearing zone diameter,[2]; ODA280 0.5,10 mm
B2,Clearing zone diameter,[2]; ODA280 0.2,0 mm
same,Clearing zone diameter,[2]; ODA280 0.5,0 mm
same,Clearing zone (in words),"[2]; after 20 hours of incubation, ODA280 0.2 and 0.5",did not show a clearing zone
